Assay results taken from patent US20170067909A1, “ASSAY-READY RECOMBINANT CELLS TRANSIENTLY OVEREXPRESSING GENES ENCODING DRUG TRANSPORTER PROTEINS AND/OR DRUG METABOLIZING ENZYMES” (Corning Incorporated, priority 2012, published 2017).
Read-outs that look alike come from different tables or passages of the source.

Columns and labels:
[1] = target: T1, rat Oatp1b2 (Rattus norvegicus, UniProt Q9QZX8)
T1 sequence (Q9QZX8 1-687): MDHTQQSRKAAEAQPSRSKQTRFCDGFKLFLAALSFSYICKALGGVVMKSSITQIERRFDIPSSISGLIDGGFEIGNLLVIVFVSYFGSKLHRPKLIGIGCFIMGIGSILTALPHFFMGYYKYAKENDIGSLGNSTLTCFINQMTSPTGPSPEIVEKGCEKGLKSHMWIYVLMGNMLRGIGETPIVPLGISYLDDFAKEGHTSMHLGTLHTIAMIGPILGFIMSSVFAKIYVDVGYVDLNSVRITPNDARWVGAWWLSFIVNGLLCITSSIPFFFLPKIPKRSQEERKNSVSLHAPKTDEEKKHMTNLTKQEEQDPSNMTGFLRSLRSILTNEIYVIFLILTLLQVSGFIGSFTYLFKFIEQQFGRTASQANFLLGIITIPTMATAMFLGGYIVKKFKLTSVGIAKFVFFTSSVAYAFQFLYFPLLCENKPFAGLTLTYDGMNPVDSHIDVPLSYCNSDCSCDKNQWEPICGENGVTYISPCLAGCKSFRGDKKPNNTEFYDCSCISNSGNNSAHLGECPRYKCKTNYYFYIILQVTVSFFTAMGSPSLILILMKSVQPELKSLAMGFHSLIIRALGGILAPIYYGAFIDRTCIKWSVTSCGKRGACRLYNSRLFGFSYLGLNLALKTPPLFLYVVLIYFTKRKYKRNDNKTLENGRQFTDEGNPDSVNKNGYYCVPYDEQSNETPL

[2] = target: T2, OATP1B1 (Homo sapiens, UniProt Q9Y6L6)
T2 sequence (Q9Y6L6 1-691): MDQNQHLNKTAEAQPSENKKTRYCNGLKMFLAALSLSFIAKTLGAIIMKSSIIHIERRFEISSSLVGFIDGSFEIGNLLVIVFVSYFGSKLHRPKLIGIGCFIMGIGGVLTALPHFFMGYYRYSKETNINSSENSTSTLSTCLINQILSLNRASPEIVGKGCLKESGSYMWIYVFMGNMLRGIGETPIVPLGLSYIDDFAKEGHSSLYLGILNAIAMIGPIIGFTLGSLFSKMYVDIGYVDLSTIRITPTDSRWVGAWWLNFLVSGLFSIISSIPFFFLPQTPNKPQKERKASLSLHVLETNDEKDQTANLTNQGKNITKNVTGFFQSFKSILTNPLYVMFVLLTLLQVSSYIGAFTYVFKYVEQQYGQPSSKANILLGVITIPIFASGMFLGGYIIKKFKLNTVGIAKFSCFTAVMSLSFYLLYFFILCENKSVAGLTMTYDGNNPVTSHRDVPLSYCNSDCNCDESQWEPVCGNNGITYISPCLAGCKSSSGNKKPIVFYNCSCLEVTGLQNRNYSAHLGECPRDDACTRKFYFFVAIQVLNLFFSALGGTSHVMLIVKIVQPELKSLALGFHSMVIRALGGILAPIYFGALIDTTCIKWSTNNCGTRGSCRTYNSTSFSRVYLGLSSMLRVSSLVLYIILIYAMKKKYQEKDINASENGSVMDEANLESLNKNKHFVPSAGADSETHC

[3] = target: T3, OATP1B1*1a (Homo sapiens, UniProt Q9Y6L6); conditions: read-out: Km, Literature Report; HEK293 cells; P. Sharma, et al. Xenobiotica 40:24. 2010; cited from earlier work
T3 sequence (Q9Y6L6 1-691): T2 sequence (Q9Y6L6 1-691)

[4] = tested on: monkey Oatp1b1
[5] = target: T4, Organic Anion-Transporting Polypeptide 1B1 (Homo sapiens, UniProt Q9Y6L6); test: Positive control plated (adherent) assay, Corning TransportoCells OATP1B1*1a; assay type: in vitro ADME; conditions: PC: Plated Assay, Seeded at 250k/well (24-well), assay at 48 hours; 5 uM FMTX, 10 min
T4 construct: host or cells: HEK293 cells, gene delivered by electroporation
T4 sequence (Q9Y6L6 1-691): T2 sequence (Q9Y6L6 1-691)
From the text: A positive control was provided via an adherent assay for characterizing the activity of a drug transporter protein in cryopreserved, Corning® TransportoCells™. Corning® TransportoCells™ transiently transfected with the gene OATP1B1*1a were obtained from Corning Life Sciences (Cat. No. 354859). In order to obtain suitable expression of the Organic Anion-Transporting Polypeptide 1B1 encoded by OATP1B1*1a, the Corning® TransportoCells™ were thawed, cultured, and harvested. […] The cells were cultured via plating in a 24-well PDL-Treated Plate (cell density of 250K cells/well; obtained from Corning Life Sciences) with plating medium for 48 hours at 37° C. and 8% CO2. The plating medium is detailed in Table 16. After 24 hours, cells were refed by 400 uL plating media supplemented with 5 mM sodium butyrate (obtained from Sigma). After 48 hours, cells were washed three times using 0.4 mL prewarmed HBSS (Corning). Then 0.3 mL substrate solution containing 5 uM FMTX were added to the cells and the cells were incubated for 10 min at 37 degree. After 10 min incubation time, the cells were washed 3 times using 0.4 mL cold HBSS. The cells were lysed and subjected to the BCA protein analysis and/or fluorescence analysis to characterize the activity of Organic Anion-Transporting Polypeptide 1B1.

[6] = HEK-293 cells overexpressing the transporter

| Compound | Km [1] [µM] | uptake of substrate (in words) [1, 6] | UPTAKE ACTIVITY pOATP1B1 ([2]; 293-F cells, 0.2 × 10^6 cells/well, after thaw from cryopreservation) [pmol/mg/min] | UPTAKE ACTIVITY pOATP1B1 ([2]; 293-F in CD293, cryo, 24 hr post plating, 0.4×10^6 cells/well) [pmol/mg/min] | UPTAKE ACTIVITY pOATP1B1 ([2]; 293-F in CD293, cryo, 72 hr post plating, 0.4×10^6 cells/well) [pmol/mg/min] | UPTAKE ACTIVITY pOATP1B1 ([2]; 293-F in CD293, fresh, 48 hr post plating, 0.4×10^6 cells/well) | UPTAKE ACTIVITY pOATP1B1 ([2]; FS293 cells, 0.2 × 10^6 cells/well, after thaw from cryopreservation) [pmol/mg/min] | UPTAKE ACTIVITY pOATP1B1 ([2]; FS293 in Excell, cryo, 24 hr post plating, 0.4×10^6 cells/well) [pmol/mg/min] | UPTAKE ACTIVITY pOATP1B1 ([2]; FS293 in Excell, cryo, 48 hr post plating, 0.4×10^6 cells/well) [pmol/mg/min] | UPTAKE ACTIVITY pOATP1B1 ([2]; FS293 in Excell, cryo, 72 hr post plating, 0.4×10^6 cells/well) [pmol/mg/min] | Uptake Activity ([2]; recovery time prior to cryopreservation 24 HOURS) [pmol/mg/min] | Uptake Activity ([2]; recovery time prior to cryopreservation 30 MIN) [pmol/mg/min] | Km [3] [µM] | uptake of substrate (in words) [4, 6] | Km ([4]; incubation of 5 minutes, Michaelis-Menten kinetics) [µM] | Uptake Activity OATP1B1 [5] [pmol/mg/min] | Uptake Ratio [5] |
| --- | --- | --- | --- | --- | --- | --- | --- | --- | --- | --- | --- | --- | --- | --- | --- | --- | --- |
| C[C@]12CC[C@@H]3c4ccc(O)cc4CC[C@H]3[C@@H]1CC[C@@H]2O[C@@H]1O[C@H](C(=O)O)[C@@H](O)[C@H](O)[C@H]1O [E17βG] | 9.6 ± 1.9 | significant uptake | 20.2 | 27.4 | 9.9 | 15.4 (85%) pmol/mg/min | 10.5 | 36.4 | 10.0 | 6.6 | 0.59 | 5.78 | 6.3 | significant uptake | 6.3 ± 1.4 | – | – |
| fluorescein methotrexate [FMTX] | – | – | – | – | – | – | – | – | – | – | – | – | – | – | – | 1.06 | 30.6 |
